Test results as given in patent US6824928B2, “Organic borate compounds and the nonaqueous electrolytes and lithium secondary batteries using the compounds” (Hitachi, Ltd., priority 2000, dated 2004).
Where two headings read alike, the source gives them in different places.

Columns and labels:
[1] = Electroconductivity in fluorinated solvent B (HFE7100/DMC 80:20); assay type: physicochemical; conditions: for concentration at which maximum electroconductivity was obtained / maximum electroconductivity / electroconductivity (result in words): solvent B: HFE7100/DMC 80:20; for improvement of electroconductivity: solvent B, versus LiN (SO2CF3)2
[2] = 1 M in PC; platinum working electrode, lithium counter/reference; sweep 10 mV/sec
Source text: By use of these nonaqueous electrolytes, the respective oxidation decomposition potential values have been compared using the method described below.

[3] = for improvement of electroconductivity by factor: solvent A, versus lithium bis-salicylate borate (comparative example 1)
[4] = solvent B: HFE7100/DMC 80:20; salt dissolved to 0.1 M
[5] = 1 M in PC; versus comparative example 8

Molecule	concentration at which maximum electroconductivity was obtained [1]	maximum electroconductivity [1]	potential from which significant changes in oxidation current are observed (oxidation decomposition potential) [2]	concentration at which maximum electroconductivity was obtained ([3]; solvent A: PC/DMC 1:2)	maximum electroconductivity ([3]; solvent A: PC/DMC 1:2)	improvement of electroconductivity by factor [3]	further results
O=C(O[B-](OC(=O)C(F)(F)F)(OC(=O)C(F)(F)F)OC(=O)C(F)(F)F)C(F)(F)F.[Li+] [LB1, Lithium Tetrakis (Trifluoroacetate) Borate]	0.8 M	1.55 mS/cm	6.7 V	0.8 M	7.8 mS/cm	up to 18	improvement of electroconductivity [1]: 2.2 times
CC(=O)O[B-](OC(C)=O)(OC(C)=O)OC(C)=O.[Li+] [LB4, Lithium Tetrakis (Acetate) Borate]							electroconductivity of the nonaqueous electrolyte ([3]; solvent A: PC/DMC 1:2, at the dissolved concentration (about 0.1 M)): 0.02 mS/cm
F[B-](F)(F)F.[Li+] [LiBF4, lithium tetrafluoroborate, reference compound]							electroconductivity (result in words) [1]: no electroconductivity has been measurable; phase behaviour of the solution [4]: the phase of the solvent has separated into two layers
O=S(=O)([N-]S(=O)(=O)C(F)(F)F)C(F)(F)F.[Li+] [LiN (SO2CF3)2, lithium bis-(trifluoromethanesulfonyl)imide, reference compound]	1 M	0.69 mS/cm	5.8 V				
Lithium Tetrakis (Pentafluoropropanoate) Borate [LB2]	0.6 M	1.7 mS/cm	6.5 V	0.6 M	5.8 mS/cm	up to 13.4	improvement of electroconductivity [1]: 2.4 times
Lithium Tetrakis (Trichloroacetate) Borate [LB3]			6.4 V	0.5 M	4.3 mS/cm	up to 10	
Tetraethyl Ammonium Tetrakis (Trifluoroacetate) Borate [AB1]							increase of potential window at the oxidation side [5]: 0.5 V
lithium bis-benzenediolate [reference compound]							electroconductivity (result in words) [1]: no electroconductivity has been measurable
